This note sets out measurements from PMC12040169 (PLOS Biology, 2025).

This series in a line: in vitro. The conditions noted are these: human, hela cells, % viability.

As to `Cc1nn(C)c(C)c1OCC(=O)Nc1cc(C(C)(C)C)sc1C#N` [CBK305383], the viability (usually a read-out of living cells in per cent, often relative to untreated cells) at 28.5 h, 10 µM was 101%.
As to `Cc1nc(C2CN(Cc3ccc(Cl)c4cccnc34)CCO2)no1` (stereo not drawn) [CBK305384], the viability at 28.5 h, 10 µM worked out at 102%.
With `COc1ccc(OC)c(-n2nnnc2SCC2CCCN(C)C2)c1` (stereo not drawn) [CBK305386], the viability at 28.5 h, 10 µM turned out to be 84.2%.
Next, `Cn1cc(-c2nc(C3CCCCCN3C(=O)c3cccnc3)no2)cn1` (stereo not drawn) [CBK305387]: 87.9%; `Cc1cc(C)n(CC(C)CNC(=O)NCCN2CCCCCC2=O)n1` (stereo not drawn) [CBK305389]: 92%; `Cc1nc2sccn2c1CN1CCCC(C(=O)N2CCOCC2)C1` (stereo not drawn) [CBK305390]: 97.6%.
Turning to `COCCNC(=O)c1cc(-c2ccccc2C)nc2c1cnn2C(C)C` [CBK305392], the viability at 28.5 h, 10 µM came out at 111%.
Consider `Cn1cc(CCNC(=O)N2CCCN(Cc3cccs3)CC2)cn1` [CBK305393], for which the viability at 28.5 h, 10 µM is 89.1%.
Consider `COC(=O)c1ccc(N2CCN(Cc3ccc(CO)o3)C(C)C2)cc1` (stereo not drawn) [CBK305394], for which the viability at 28.5 h, 10 µM was found to be 83.9%.
Next, `COCC(=O)Nc1c[nH]nc1C1CCCN(c2cccc(F)c2C#N)C1` (stereo not drawn) [CBK305395]: 86%; `CC1(c2ccco2)NC(=O)N(Cc2ncc(-c3cccs3)o2)C1=O` (stereo not drawn) [CBK305398]: 98.8%; `CCOC(=O)c1cnn(C2CCCN(Cc3cc(C#N)cs3)C2)c1` (stereo not drawn) [CBK305399]: 101%.
Next, `CCNS(=O)(=O)C1CCN(c2cc(C#N)ccc2C(F)(F)F)C1` (stereo not drawn) [CBK305402]: 96.2%; `Cc1c(C(C)NCC(O)c2ccncc2)cnn1-c1ccc(C#N)cc1` (stereo not drawn) [CBK305403]: 85%.
`CC(C(=O)Nc1cccc(F)c1)N1CCN(Cc2cccnc2)CC1` (stereo not drawn) [CBK305408]: the viability at 28.5 h, 10 µM is 109%.
Take `O=C(NCC1CCN(c2ccc(F)c(F)c2)C1)c1c[nH]nc1C1CC1` (stereo not drawn) [CBK305409]: the viability at 28.5 h, 10 µM turned out to be 91%.
The result for `Cc1cccc(CN2CCC(NC(=O)c3cccc4nn[nH]c34)CC2)c1` [CBK305411] reads 92.1%; that for `COc1ccc(C)cc1CN(C)C(=O)c1cccc(NC(=O)C2CC2)c1` [CBK305414], 98.5%; that for `Cc1c(CN(C)C(=O)c2cccc(NC(=O)C3CCCO3)c2)cnn1C` (stereo not drawn) [CBK305416], 103%.
As for `CCCCNc1cc(N2CCOC(Cn3cc(C)cn3)C2)nc(N)n1` (stereo not drawn) [CBK305417], the viability at 28.5 h, 10 µM is 53.3%.
On to `CCn1cc(C2CN(S(=O)(=O)c3ccc(F)c(C)c3)CCO2)cn1` (stereo not drawn) [CBK305419], for which the viability at 28.5 h, 10 µM was 91.3%.
Next, `CCc1ccccc1S(=O)(=O)N1CCOC(c2cnn(CC)c2)C1` (stereo not drawn) [CBK305421]: 94.8%.
In the case of `Cc1ccc(C(F)(F)F)cc1NCc1csc(C2CCCO2)n1` (stereo not drawn) [CBK305424], the viability at 28.5 h, 10 µM turned out to be 92.8%.
`CN(Cc1ccsc1)C(=O)c1cccc(S(=O)(=O)NC(C)(C)C)c1` [CBK305425]: the viability at 28.5 h, 10 µM was 81.2%.
Consider `CCOC(=O)C(CNS(=O)(=O)c1ccc(F)cc1C)Cc1ccccc1` (stereo not drawn) [CBK305427], for which the viability at 28.5 h, 10 µM came out at 92.3%.
Next, `CN(Cc1cccnc1)CC1CCCN(C(=O)Nc2ccc(Cl)cc2)C1` (stereo not drawn) [CBK305428]: 83.9%; `CCCCc1noc(C(C)S(=O)(=O)Cc2csc(CCCC)n2)n1` (stereo not drawn) [CBK305431]: 110%; `Cc1ccc(S(=O)(=O)NC(C)(C)C)cc1C(=O)N(C)Cc1cnn(C)c1` [CBK305433]: 86.9%.
Consider `CC(C)Oc1ccccc1CN(C)C(C)c1ccc(S(N)(=O)=O)cc1` (stereo not drawn) [CBK305436], for which the viability at 28.5 h, 10 µM came out at 94.4%.
For `CSCc1nc2ccccc2n1CC(=O)N(CCC#N)Cc1ccco1` [CBK305440], the viability at 28.5 h, 10 µM worked out at 97.7%.
On to `CC(C)(O)c1cn(C2CN(C(=O)c3sccc3-c3ccccc3)C2)nn1` [CBK305442], for which the viability at 28.5 h, 10 µM is 87.6%.
Turning to `CCOC(=O)C(NCc1nc(-c2cccc(C(F)(F)F)c2)no1)C(C)C` (stereo not drawn) [CBK305445], the viability at 28.5 h, 10 µM amounted to 93%.
Next, `Cc1c(C(=O)N2CC(n3cc(C(C)O)nn3)C2)sc2ccc(F)cc12` (stereo not drawn) [CBK305446]: 94.5%; `Cc1ccc(Cc2cnc(NC(=O)NCCN3CCOCC3)s2)cc1F` [CBK305449]: 93.6%.
Turning to `O=C(NCc1ccsc1)N1CCCN(Cc2ccc(Cl)cc2)CC1` [CBK305450], the viability at 28.5 h, 10 µM came out at 86.4%.
Next, `COc1ccc(C)cc1C1(CNC(=O)N2CCC(C)(O)C2)CCOCC1` (stereo not drawn) [CBK305452]: 102%; `Cn1ccc(N2CCCC(NC(=O)c3scnc3C(C)(C)C)C2=O)n1` (stereo not drawn) [CBK305453]: 94.9%.
The result for `CCn1nccc1N1CCCC(NC(=O)CCc2ccccc2Cl)C1=O` (stereo not drawn) [CBK305455] reads 113%; that for `CC(C)Cn1cnc(S(=O)(=O)N2CCC(OCc3ccncc3)C2)c1` (stereo not drawn) [CBK305456], 105%; that for `Cc1nc(C)c(CNC(=O)NC2CCCN(c3ccn(C)n3)C2=O)s1` (stereo not drawn) [CBK305457], 86%.
Next, `CSc1nnc(CCCNC(=O)c2cccc(C#N)c2)n1C1CCCC1` [CBK305459]: 80.9%; `CN(C)c1ncc(CNc2nc(O)c3c(n2)CCCC3)cn1` [CBK305460]: 89.3%; `CN1CCC(CNS(=O)(=O)c2cccc3c2OCC3)CC1=O` (stereo not drawn) [CBK305465]: 114%.
For the molecule `Cn1nc(C(C)(C)C)c2cc(C(=O)N3CCn4nccc43)cnc21` [CBK305466], the viability at 28.5 h, 10 µM amounted to 93.3%.
Take `CC1(C)CC(NC(=O)c2cc3cccnc3[nH]2)CCO1` (stereo not drawn) [CBK305467]: the viability at 28.5 h, 10 µM came out at 82.3%.
As for `CC(=O)Nc1cccc(-n2nnnc2SCc2cnn(C)c2)c1` [CBK305471], the viability at 28.5 h, 10 µM is 101%.
With `CCOC(=O)C(NC(=O)C1CCC(=O)N1)c1cccc(C)c1C` (stereo not drawn) [CBK305472], the viability at 28.5 h, 10 µM worked out at 93.8%.
`O=C(NC1CCN(CC(F)(F)F)CC1)c1cnc(-c2ccccc2)s1` [CBK305474]: the viability at 28.5 h, 10 µM is 98.4%.
`Cc1csc(C2CN(Cc3cn(C)c(=O)n(C)c3=O)CCO2)n1` (stereo not drawn) [CBK305475]: the viability at 28.5 h, 10 µM came out at 86.6%.
With `COCCc1ccccc1NC1CCN(c2nccs2)CC1` [CBK305476], the viability at 28.5 h, 10 µM is 91.2%.
Regarding `COCCn1c(SC(C)C(=O)NC2CC2)nc2ccc(Br)cc2c1=O` (stereo not drawn) [CBK305481], the viability at 28.5 h, 10 µM is 108%.
As to `Cc1ccc(CS(=O)(=O)N(C)C2CCN(C)C(C)C2)c(F)c1` (stereo not drawn) [CBK305484], the viability at 28.5 h, 10 µM was determined as 90.4%.
`CCOc1cc(NC2CCN(C(=O)NCC(F)F)CC2)ncn1` [CBK305485]: the viability at 28.5 h, 10 µM stood at 85.6%.
As for `Cc1[nH]c2ccc(CNC(=O)NC3CCCc4cn[nH]c43)cc2c1C` (stereo not drawn) [CBK305488], the viability at 28.5 h, 10 µM was 89.8%.
Consider `Cc1nnc(CS(=O)(=O)Cc2csc(C(C)(C)C)n2)n1C1CC1` [CBK305489], for which the viability at 28.5 h, 10 µM is 109%.
For the molecule `Cc1c(C(=O)N2CCCCC2C(N)=O)nnn1-c1cccc(Cl)c1` (stereo not drawn) [CBK305490], the viability at 28.5 h, 10 µM came out at 106%.
In the case of `Cc1cc(O)nc(C(C)N2CCCN(CC(F)(F)F)CC2)n1` (stereo not drawn) [CBK305491], the viability at 28.5 h, 10 µM was found to be 88.6%.
`O=C(NCC1(CCO)CCOC1)c1c[nH]nc1-c1cc2ccccc2o1` (stereo not drawn) [CBK305492]: the viability at 28.5 h, 10 µM was found to be 103%.
Take `CC(NC(=O)CCc1cnn(C)c1)c1nc(-c2ccncc2)cs1` (stereo not drawn) [CBK305496]: the viability at 28.5 h, 10 µM was 91.4%.
Regarding `Cc1nc(CCNc2ccc(-c3nc(C)c(C)c(=O)[nH]3)cn2)cs1` [CBK305497], the viability at 28.5 h, 10 µM was determined as 107%.
With `CCOC(=O)C(Cc1ccccc1)NC(=O)c1cn[nH]c1C` (stereo not drawn) [CBK305499], the viability at 28.5 h, 10 µM is 99.7%.
Next, `COc1ccc(C)cc1-n1ccc(C(=O)NC2CCSCC2)n1` [CBK305502]: 94.6%.
`CN(CCNC(=O)Nc1ccc2c(c1)oc(=O)n2C)C1CCCC1` [CBK305503]: the viability at 28.5 h, 10 µM turned out to be 95.1%.
As for `CCOc1cc(NC2CCN(C(=O)C3CCCCC3(C)C)CC2)ncn1` (stereo not drawn) [CBK305505], the viability at 28.5 h, 10 µM is 105%.
As to `CCOc1cc(NC2CCN(C(=O)CC3CCCCC3)CC2)ncn1` [CBK305506], the viability at 28.5 h, 10 µM stood at 104%.
In the case of `Cc1nc(C)c(S(=O)(=O)Nc2ccccc2-c2nnnn2C(C)C)s1` [CBK305508], the viability at 28.5 h, 10 µM worked out at 96.3%.
As to `CC(C)n1nnnc1-c1ccccc1NS(=O)(=O)C1CC1` [CBK305509], the viability at 28.5 h, 10 µM stood at 97.7%.
Next, `Cc1cc(C)n(CC(=O)NCC(c2c(F)cccc2F)N(C)C)n1` (stereo not drawn) [CBK305510]: 96.7%.
As to `CCSc1nnnn1-c1cccc(NC(C)=O)c1` [CBK305511], the viability at 28.5 h, 10 µM was found to be 94.4%.
Regarding `Cc1cc(C(=O)CSc2ccc(Cl)nn2)c(C)n1C1CC1` [CBK305512], the viability at 28.5 h, 10 µM was found to be 99.2%.
Turning to `O=S1(=O)CCC(c2nnc(C3(c4ccc(Br)cc4)CCOCC3)o2)C1` (stereo not drawn) [CBK305513], the viability at 28.5 h, 10 µM came to 115%.
For the molecule `Cc1c(C(=O)N(C(C)C)C2CC2)nnn1-c1ccc2ncccc2c1` [CBK305518], the viability at 28.5 h, 10 µM came out at 92.5%.
With `Cc1c(C(=O)N2CCC(n3cncn3)CC2)sc2cccc(F)c12` [CBK305520], the viability at 28.5 h, 10 µM is 103%.
Turning to `Cc1cc(CNC(=O)Nc2ccc(F)c(-n3nnnc3C)c2)n(C)n1` [CBK305525], the viability at 28.5 h, 10 µM came to 88.4%.
Turning to `CN(C(=O)CN1CSCC1=O)c1nc2c(s1)CC(c1ccccc1)CC2` (stereo not drawn) [CBK305526], the viability at 28.5 h, 10 µM was 91.6%.
Turning to `Cc1cc(C)c2c(OCC(=O)Nc3nc(C(N)=O)cs3)nn(C)c2n1` [CBK305530], the viability at 28.5 h, 10 µM stood at 83.9%.
Consider `CCc1cc(=O)[nH]c(-c2ccc(N3CCOCC3C)nc2)n1` (stereo not drawn) [CBK305532], for which the viability at 28.5 h, 10 µM stood at 95.7%.
The result for `CCOc1nnc(CN(CCC(N)=O)c2ccc(F)cc2)s1` [CBK305536] reads 110%; that for `CCNC(=O)N(C)C1CCN(c2ncnc3ccccc23)CC1` [CBK305537], 110%; that for `CCc1nn(C)c2[nH]nc(NC(=O)Cc3csc(C)n3)c12` [CBK305538], 91.7%.
`CC(C)(c1noc(C2CCOCC2)n1)S(=O)(=O)c1ccc(Br)cc1` [CBK305543]: the viability at 28.5 h, 10 µM came out at 93.5%.
